Data as given in the NIST ThermoML archive (doi:10.1016/j.jct.2005.04.010).
Numbers after ± are expanded uncertainties.

Legend:
[1] = 101.33 kPa, Liquid
[2] = wn = mass fraction of the nth substance listed; details: 101 kPa, Liquid, w1 = 0.5

SMILES	mass density ([1]; 298.15 K)	mass density ([1]; 303.15 K)	mass density ([1]; 308.15 K)	mass density ([1]; 313.15 K)	mass density ([1]; 318.15 K)	mass density ([1]; 323.15 K)	mass density ([1]; 328.15 K)	mass density ([1]; 333.15 K)	mass density ([1]; 338.15 K)	mass density ([1]; 343.15 K)	mass density ([1]; 348.15 K)	other results
CCCC[N+]1(C)CCCC1.O=S(=O)([N-]S(=O)(=O)C(F)(F)F)C(F)(F)F	1394 ± 5 kg/m3	1390 ± 5 kg/m3	1388 ± 5 kg/m3	1386 ± 5 kg/m3	1383 ± 5 kg/m3	1381 ± 5 kg/m3	1379 ± 5 kg/m3	1377 ± 5 kg/m3	1373 ± 5 kg/m3	1370 ± 5 kg/m3	1366 ± 5 kg/m3	–
CCn1cc[n+](C)c1.O=S(=O)([N-]S(=O)(=O)C(F)(F)F)C(F)(F)F + CCCC[n+]1ccn(C)c1.O=S(=O)([N-]S(=O)(=O)C(F)(F)F)C(F)(F)F	–	–	–	–	–	–	–	–	–	–	–	mass density ([2]; 293.15 K): 1483 ± 6 kg/m3; mass density ([2]; 298.15 K): 1479 ± 6 kg/m3; mass density ([2]; 303.15 K): 1474 ± 6 kg/m3; mass density ([2]; 308.15 K): 1469 ± 6 kg/m3; mass density ([2]; 313.15 K): 1464 ± 6 kg/m3; mass density ([2]; 318.15 K): 1459 ± 6 kg/m3; mass density ([2]; 323.15 K): 1454 ± 6 kg/m3; mass density ([2]; 328.15 K): 1449 ± 6 kg/m3; mass density ([2]; 333.15 K): 1445 ± 6 kg/m3; mass density ([2]; 338.15 K): 1440 ± 6 kg/m3; mass density ([2]; 343.15 K): 1435 ± 6 kg/m3; mass density ([2]; 348.15 K): 1430 ± 6 kg/m3; mass density ([2]; 353.15 K): 1425 ± 6 kg/m3; mass density ([2]; 358.15 K): 1421 ± 6 kg/m3
CCCCCC[n+]1ccn(C)c1.O=S(=O)([N-]S(=O)(=O)C(F)(F)F)C(F)(F)F	1370 ± 5 kg/m3	1365 ± 5 kg/m3	1361 ± 5 kg/m3	1356 ± 5 kg/m3	1352 ± 5 kg/m3	1347 ± 5 kg/m3	1343 ± 5 kg/m3	1339 ± 5 kg/m3	1334 ± 5 kg/m3	1330 ± 5 kg/m3	1325 ± 5 kg/m3	mass density ([1]; 293.15 K): 1374 ± 5 kg/m3; mass density ([1]; 353.15 K): 1320 ± 5 kg/m3; mass density ([1]; 358.15 K): 1315 ± 5 kg/m3
